Source: US20220317111A1, “BIOASSAY METHOD” (KASHIV BIOSCIENCES, LLC, priority 2021, published 2022)

Legend:
[1] = biological target: T1, Human bradykinin B1 receptor cell line (Homo sapiens, UniProt P46663); test: Bradykinin B1 receptor antagonistic activity by intracellular calcium assay (Fluo-4, LDBK agonist); assay type: cell-based; conditions: human B1 receptor cells, Fluo-4 calcium assay, agonist LDBK at EC80, with washing step
T1 sequence (P46663 1-353): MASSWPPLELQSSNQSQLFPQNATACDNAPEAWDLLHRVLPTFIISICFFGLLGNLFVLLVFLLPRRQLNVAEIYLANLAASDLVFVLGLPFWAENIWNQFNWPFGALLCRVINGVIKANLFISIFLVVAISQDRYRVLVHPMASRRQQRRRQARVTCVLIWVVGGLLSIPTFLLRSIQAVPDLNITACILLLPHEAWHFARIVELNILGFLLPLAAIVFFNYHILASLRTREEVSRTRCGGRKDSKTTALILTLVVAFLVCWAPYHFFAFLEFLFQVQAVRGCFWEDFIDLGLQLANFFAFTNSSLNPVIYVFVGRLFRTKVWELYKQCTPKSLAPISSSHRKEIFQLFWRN
Procedure: (§1) Human bradykinin B1 receptor cell line (Product #ES-091-C), Human bradykinin B2 receptor aequorin cell line (Product #ES-090-A), Fluo-4 calcium assay kits (Molecular Probes).
(§2) Agonist for B1 receptor cell line is Lys-[Des-Arg9]-Bradykinin (LDBK) and antagonist is R715. Agonist for B2 receptor cell line is BK (bradykinin) and antagonist is HOE140. All the agonist and antagonist were procured from TOCRIS. Dye loading solution was prepared by adding 10 mL of assay buffer and 100 μL of the probenecid stock solution (provided in the Kit) to one bottle of component A (dye concentrate). 0.4% Triton X-100 (4X) was used as positive control (PC) and was prepared by adding 38 uL of Triton X-100 in 10 mL of working assay buffer (WAB).
(§3) Human bradykinin B1 receptor cell line (B1) and human bradykinin B2 receptor aequorin cell line (B2) was procured from PerkinElmer, Waltham, Mass. B1 cells were cultured and maintained in Ham's F-12 medium (Gibco) supplemented with 10% fetal bovine serum (FBS) (Gibco) and 0.4 mg/ml Geneticin (Gibco) in a humidified incubator at 37° C. with 5% CO2. B2 cells were cultured and maintained in Ham's F-12 medium (Gibco) supplemented with 10% fetal bovine serum (FBS) (Gibco), 0.4 mg/ml Geneticin (Gibco) and 5 μg/ml Puromycin (Gibco) in a humidified incubator at 37° C. with 5% CO2. All the test compounds were weighed and dissolved in DMSO and a stock of 20 mM was prepared and stored at −20° C.
(§4) Bradykinin receptor antagonist screening assay was performed using Fluo-4 calcium assay kits by following the manufacturer's instruction. Briefly, approximately 30,000 of human either B1 or B2 cells were seeded in each well of a 96 black well plate. After 24 h, the growth media was removed and washed with 200 μL of assay buffer provided in the Fluo-4 calcium assay kits. Thereafter, 100 uL of Flu-4 dye-loading solution was added in each well of 96 well plate and incubated it at 37° C. for about 30 min. After about 30 minutes of incubation at room temperature, dye loading solution was removed and washed with 200 μL of WAB (mentioned in materials). Post washing, into 100 uL of WAB, 50 uL of WAB or 50 uL of cell line receptor specific antagonist (mentioned in materials) or test compound dilutions were added in 96 well plate. The plates were incubated for 20 min at room temperature with shaking at 300 rpm. At the end of the incubation time, the plates were inserted into the CLARIOstar microplate reader and % gain was adjusted. Thereafter, the plates were read at Ex/Em=494/516 nm for baseline RFU (Range 1). Thereafter, the microplate reader was paused at 11th cycle and 50 uL of 4× (EC80) cell line specific agonist (mentioned in materials) or PC dilution prepared in WAB was added and manually the plates were shaked for 5 sec. Again, the plates were read at Ex/Em=494/516 nm (Range 2).
(§5) Delta RFU was calculated using the formula:
(§6) Delta RFU=Range 2 avg RFU−Range 1 avg RFU
(§7) Based on the data the IC50 or Percent Inhibition of all the compounds was calculated.
(§8) Note: The above assay was performed using plate (flying) mode function of CLARIOstar.

[2] = biological target: T2, Human bradykinin B2 receptor aequorin cell line (Homo sapiens, UniProt P30411); test: Bradykinin B2 receptor antagonistic activity by intracellular calcium assay (Fluo-4, BK agonist); assay type: cell-based; conditions: for IC50: human B2 receptor cells, Fluo-4 calcium assay, agonist BK at EC80, with washing step
T2 sequence (P30411 1-391): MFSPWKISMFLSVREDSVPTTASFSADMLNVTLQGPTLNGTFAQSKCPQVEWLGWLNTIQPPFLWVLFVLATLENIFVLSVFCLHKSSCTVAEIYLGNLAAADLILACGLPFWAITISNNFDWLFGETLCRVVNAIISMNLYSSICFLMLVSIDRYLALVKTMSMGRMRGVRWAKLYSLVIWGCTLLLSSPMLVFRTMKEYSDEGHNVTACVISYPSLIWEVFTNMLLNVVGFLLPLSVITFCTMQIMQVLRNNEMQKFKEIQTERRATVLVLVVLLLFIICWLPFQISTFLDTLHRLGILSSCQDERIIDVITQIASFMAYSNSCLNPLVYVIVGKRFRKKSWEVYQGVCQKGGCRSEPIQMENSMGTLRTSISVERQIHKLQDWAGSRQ
Procedure: as §1, §2, §3, §4, §5, §6, §7, §8

Nc1ccc(/N=N/c2ccc(O)cc2)c(N)n1 [Compound III]
IC50 [1]: 27.1 µM | IC50 [2]: 21.3 µM

Nc1nc(N)c(/N=N/c2ccccc2)cc1O [Compound II]
IC50 [1]: 12.5 µM | IC50 [2]: 13.2 µM

Nc1ccc(/N=N/c2ccccc2O)c(N)n1 [Compound IV]
IC50 [1]: 8.4 µM | IC50 [2]: 10.9 µM

Nc1ccc(/N=N/c2ccccc2)c(N)n1 [Compound I]
IC50 [1]: 32.4 µM | IC50 [2]: 31.9 µM

Nc1nc(N)c(/N=N/c2ccc(O)cc2)cc1O [Compound V]
IC50 [1]: 29.5 µM | IC50 [2]: > 100 µM

HOE-140 [reference compound]
IC50 without washing steps relative to IC50 with washing step [2]: approximately 15 fold
